Experimental data reported in PubChem BioAssay AID1963851 (Molecular Pharmacology Branch, DTP, NCI, 2024).
pIC50: −log10 of the molar value.

Test system: 188146-221-R-J1-PDC complex spheroid viability
Test: Anticancer human tumor 188146-221-R-J1-PDC patient-derived colon adenocarcinoma cell line growth inhibition [POLQ]
Conditions: for pIC50: curve of first compound; for viability, T/C: stronger effect = lower value
Method in brief: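 Complex spheroid viability model combining PDC tumour cells with endothelial (HUVEC) and MSC stromal cells. Novobiocin, ART-558 or RP6685 were tested singly and in combination with standard and investigational anticancer drugs. Each was titrated in half-log steps from near clinical Cmax, or from 10 microM where Cmax was unknown.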

[1] = second compound 0.0316 µM, first compound 0.0316 µM
[2] = second compound 0.0316 µM, first compound 0.1 µM
[3] = second compound 0.1 µM, first compound 0.0316 µM
[4] = second compound 0.1 µM, first compound 0.1 µM
[5] = second compound 0.316 µM, first compound 0.0316 µM
[6] = second compound 0.316 µM, first compound 0.1 µM
[7] = second compound 1 µM, first compound 0.0316 µM
[8] = second compound 1 µM, first compound 0.1 µM
[9] = second compound 3.16 µM, first compound 0.0316 µM
[10] = second compound 3.16 µM, first compound 0.1 µM
[11] = second compound 10 µM, first compound 0.0316 µM
[12] = second compound 10 µM, first compound 0.1 µM
[13] = second compound 0.0316 µM, first compound 0.316 µM
[14] = second compound 0.0316 µM, first compound 1 µM
[15] = second compound 0.0316 µM, first compound 3.16 µM
[16] = second compound 0.0316 µM, first compound 10 µM
[17] = second compound 0.1 µM, first compound 0.316 µM
[18] = second compound 0.1 µM, first compound 1 µM
[19] = second compound 0.1 µM, first compound 3.16 µM
[20] = second compound 0.1 µM, first compound 10 µM
[21] = second compound 0.316 µM, first compound 0.316 µM
[22] = second compound 0.316 µM, first compound 1 µM
[23] = second compound 0.316 µM, first compound 3.16 µM
[24] = second compound 0.316 µM, first compound 10 µM
[25] = second compound 1 µM, first compound 0.316 µM
[26] = second compound 1 µM, first compound 1 µM
[27] = second compound 1 µM, first compound 3.16 µM
[28] = second compound 1 µM, first compound 10 µM
[29] = second compound 3.16 µM, first compound 0.316 µM
[30] = second compound 3.16 µM, first compound 1 µM
[31] = second compound 3.16 µM, first compound 3.16 µM
[32] = second compound 3.16 µM, first compound 10 µM
[33] = second compound 10 µM, first compound 0.316 µM
[34] = second compound 10 µM, first compound 1 µM
[35] = second compound 10 µM, first compound 3.16 µM
[36] = second compound 10 µM, first compound 10 µM
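Note: spheroids exposed to compounds for seven days.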
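Throughout, for viability, T/C: 100% = DMSO vehicle control viability.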

`CC[C@@]1(O)C(=O)OCc2c1cc1n(c2=O)Cc2cc3c(CN(C)C)c(O)ccc3nc2-1` + COC1C(OC(N)=O)C(O)C(Oc2ccc3c(O)c(NC(=O)c4ccc(O)c(CC=C(C)C)c4)c(=O)oc3c2C)OC1(C)C showed a pIC50 (second compound 0.0316 µM) of less than 7.00, a pIC50 (second compound 0.1 µM) of less than 7.00 and a pIC50 (second compound 0.316 µM) of less than 7.00. For the same compound, the pIC50 (second compound 1 µM) was less than 7.00, the pIC50 (second compound 3.16 µM) was less than 7.00 and the pIC50 (second compound 10 µM) was less than 7.00. The viability, T/C (second compound 0.0316 µM, first compound 0.000316 µM) was 109%, the viability, T/C (second compound 0.0316 µM, first compound 0.001 µM) was 98.7% and the viability, T/C (second compound 0.0316 µM, first compound 0.00316 µM) was 102%. It also gave a viability, T/C (second compound 0.0316 µM, first compound 0.01 µM) of 101%, a viability, T/C [1] of 98.8% and a viability, T/C [2] of 68.2%. It also gave a viability, T/C (second compound 0.1 µM, first compound 0.000316 µM) of 97.7%, a viability, T/C (second compound 0.1 µM, first compound 0.001 µM) of 100% and a viability, T/C (second compound 0.1 µM, first compound 0.00316 µM) of 89.8%. For the same compound, the viability, T/C (second compound 0.1 µM, first compound 0.01 µM) was 101%, the viability, T/C [3] was 87.9% and the viability, T/C [4] was 66.5%. For the same compound, the viability, T/C (second compound 0.316 µM, first compound 0.000316 µM) was 106%, the viability, T/C (second compound 0.316 µM, first compound 0.001 µM) was 95.9% and the viability, T/C (second compound 0.316 µM, first compound 0.00316 µM) was 107%. The viability, T/C (second compound 0.316 µM, first compound 0.01 µM) was 98.1%, the viability, T/C [5] was 89.2% and the viability, T/C [6] was 73.9%. For the same compound, the viability, T/C (second compound 1 µM, first compound 0.000316 µM) was 111%, the viability, T/C (second compound 1 µM, first compound 0.001 µM) was 104% and the viability, T/C (second compound 1 µM, first compound 0.00316 µM) was 109%. The viability, T/C (second compound 1 µM, first compound 0.01 µM) was 104%, the viability, T/C [7] was 90.1% and the viability, T/C [8] was 79.3%. The viability, T/C (second compound 3.16 µM, first compound 0.000316 µM) was 104%, the viability, T/C (second compound 3.16 µM, first compound 0.001 µM) was 102% and the viability, T/C (second compound 3.16 µM, first compound 0.00316 µM) was 94.5%. It also gave a viability, T/C (second compound 3.16 µM, first compound 0.01 µM) of 91.6%, a viability, T/C [9] of 102% and a viability, T/C [10] of 67.3%. For the same compound, the viability, T/C (second compound 10 µM, first compound 0.000316 µM) was 96.2%, the viability, T/C (second compound 10 µM, first compound 0.001 µM) was 90.7% and the viability, T/C (second compound 10 µM, first compound 0.00316 µM) was 99.5%. It also gave a viability, T/C (second compound 10 µM, first compound 0.01 µM) of 94.6%, a viability, T/C [11] of 92.1% and a viability, T/C [12] of 62.9%.

`COc1cc(C2c3cc4c(cc3C(OC3OC5COC(C)OC5C(O)C3O)C3COC(=O)C23)OCO4)cc(OC)c1O` (stereo unspecified) + COC1C(OC(N)=O)C(O)C(Oc2ccc3c(O)c(NC(=O)c4ccc(O)c(CC=C(C)C)c4)c(=O)oc3c2C)OC1(C)C showed a pIC50 (second compound 0.0316 µM) of 6.04, a pIC50 (second compound 0.1 µM) of 6.04 and a pIC50 (second compound 0.316 µM) of 6.07. For the same compound, the pIC50 (second compound 1 µM) was 6.01, the pIC50 (second compound 3.16 µM) was 6.02 and the pIC50 (second compound 10 µM) was 5.87. For the same compound, the viability, T/C [1] was 116%, the viability, T/C [2] was 103% and the viability, T/C [13] was 78.1%. For the same compound, the viability, T/C [14] was 45.9%, the viability, T/C [15] was 31.3% and the viability, T/C [16] was 21.4%. It also gave a viability, T/C [3] of 124%, a viability, T/C [4] of 108% and a viability, T/C [17] of 79.5%. For the same compound, the viability, T/C [18] was 50%, the viability, T/C [19] was 24.8% and the viability, T/C [20] was 29%. For the same compound, the viability, T/C [5] was 103%, the viability, T/C [6] was 111% and the viability, T/C [21] was 80.4%. The viability, T/C [22] was 46.5%, the viability, T/C [23] was 24.7% and the viability, T/C [24] was 23.4%. The viability, T/C [7] was 111%, the viability, T/C [8] was 93.8% and the viability, T/C [25] was 77.3%. For the same compound, the viability, T/C [26] was 52.9%, the viability, T/C [27] was 25.3% and the viability, T/C [28] was 31.6%. The viability, T/C [9] was 105%, the viability, T/C [10] was 103% and the viability, T/C [29] was 81.9%. The viability, T/C [30] was 49.7%, the viability, T/C [31] was 30% and the viability, T/C [32] was 29.2%. The viability, T/C [11] was 119%, the viability, T/C [12] was 103% and the viability, T/C [33] was 97.3%. The viability, T/C [34] was 54.1%, the viability, T/C [35] was 34.7% and the viability, T/C [36] was 27.4%.

With `COc1cccc2c1C(=O)c1c(O)c3c(c(O)c1C2=O)CC(O)(C(=O)CO)CC3OC1CC(N)C(O)C(C)O1` (stereo unspecified) + COC1C(OC(N)=O)C(O)C(Oc2ccc3c(O)c(NC(=O)c4ccc(O)c(CC=C(C)C)c4)c(=O)oc3c2C)OC1(C)C the pIC50 (second compound 0.0316 µM) was 6.81, the pIC50 (second compound 0.1 µM) was 6.84 and the pIC50 (second compound 0.316 µM) was 6.79. For the same compound, the pIC50 (second compound 1 µM) was 6.84, the pIC50 (second compound 3.16 µM) was 6.97 and the pIC50 (second compound 10 µM) was 6.82. It also gave a viability, T/C [1] of 90.2%, a viability, T/C [2] of 59.5% and a viability, T/C [13] of 33.8%. For the same compound, the viability, T/C [14] was 13.1%, the viability, T/C [15] was 0.29% and the viability, T/C [16] was 0.43%. For the same compound, the viability, T/C [3] was 91.8%, the viability, T/C [4] was 57.5% and the viability, T/C [17] was 32.5%. For the same compound, the viability, T/C [18] was 11.4%, the viability, T/C [19] was 0.37% and the viability, T/C [20] was 0.4%. The viability, T/C [5] was 92.7%, the viability, T/C [6] was 61.1% and the viability, T/C [21] was 34%. It also gave a viability, T/C [22] of 16.4%, a viability, T/C [23] of 0.2% and a viability, T/C [24] of 0.41%. For the same compound, the viability, T/C [7] was 94.9%, the viability, T/C [8] was 54% and the viability, T/C [25] was 40.1%. It also gave a viability, T/C [26] of 9.16%, a viability, T/C [27] of 0.41% and a viability, T/C [28] of 0.44%. It also gave a viability, T/C [9] of 85.3%, a viability, T/C [10] of 47.1% and a viability, T/C [29] of 35.4%. It also gave a viability, T/C [30] of 8.24%, a viability, T/C [31] of 0.22% and a viability, T/C [32] of 0.55%. For the same compound, the viability, T/C [11] was 77.9%, the viability, T/C [12] was 56.6% and the viability, T/C [33] was 36.5%. The viability, T/C [34] was 9.76%, the viability, T/C [35] was 0.33% and the viability, T/C [36] was 0.51%.
